In test [1] the target is T1, MycN protein (n-myc) (Homo sapiens, UniProt P04198).
T1 construct: either 2×10^6 of L-363 (human leukemia cell line) or SKNBE2 (neuroblastoma cell line) cells; endogenous in cells; host or cells: SKNBE2 / SK-N-BE(2) neuroblastoma cells
T1 sequence (P04198 1-464): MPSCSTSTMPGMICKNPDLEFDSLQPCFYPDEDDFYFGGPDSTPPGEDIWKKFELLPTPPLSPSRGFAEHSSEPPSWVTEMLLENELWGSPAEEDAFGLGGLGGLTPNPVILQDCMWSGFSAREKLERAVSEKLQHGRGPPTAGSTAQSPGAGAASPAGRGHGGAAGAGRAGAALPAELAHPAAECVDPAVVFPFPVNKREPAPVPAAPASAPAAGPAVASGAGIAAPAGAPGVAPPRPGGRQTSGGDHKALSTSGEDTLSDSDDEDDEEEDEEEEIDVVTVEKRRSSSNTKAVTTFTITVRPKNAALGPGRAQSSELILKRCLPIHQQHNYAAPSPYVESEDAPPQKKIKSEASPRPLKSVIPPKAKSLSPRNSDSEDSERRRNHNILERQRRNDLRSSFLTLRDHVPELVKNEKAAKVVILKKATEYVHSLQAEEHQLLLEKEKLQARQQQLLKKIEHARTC
Description: Degradation of MycN protein, 24 h treatment, JESS Western, SK-N-BE(2) cells (Example 161). Particulars: SKNBE2 cells. Format: cell-based. As to the method:
(§1) For L363 cells (suspension), 1E6 cells were plated into each well of a 6 well plate. For SK-N-BE(2) cells (adherent), 5E5 cells were plated into each well of a 6 well dish. […] All compounds were diluted to 10 mM in DMSO. Cells were treated with the compound for 24 hrs, then for both cell types, media containing cells were removed from wells into a 15 ml centrifuge tube, and remaining adherent SK-N-BE(2) cells were also scraped from the wells into the appropriate tubes. Tubes were centrifuged, cells were washed with PBS then re-centrifuged to pellet cells. A RIPA buffer cocktail was added to the cells on ice for 5 mins. Cell lysates were clarified by centrifugation and stored at −80 degrees until required. BCA assay was performed on each lysate to determine the protein concentration.
(§2) For validation studies of antibodies, lysates and antibodies were used at a number of concentrations (Lysates: 2, 1, 0.2 mg/ml; Antibodies: 1 in 50, 1 in 200 dilution). Once an appropriate lysate concentration and antibody concentration was determined, samples were screened in the JESS technology (Protein Simple, San Jose, CA—https://www.proteinsimple.com/jess.html).
(§3) Target protein antibodies (n-myc and c-myc) were detected in the chemi-luminescence channel and loading controls (tubulin and GAPDH) were detected using a Near Infra Red (NIR) labeled secondary antibody.
(§4) For SK-N-EB2 adherent cells, 5E5 cells in 1.9 mls media were plated into 6 well dishes and incubated for 24 hrs. […] Cells were scrapped off the plate, centrifuged, washed with PBS, centrifuged, then a RIPA buffer cocktail added to the cells (100 ul), centrifuged and stored at −80 for later analysis. For L363 suspension cells, 1E6 cells were plated into […] (950 ul media) and incubated for 24 hrs. […] Cells were aspirated into tubes, centrifuged, washed with PBS, centrifuged, then a RIPA buffer cocktail added to the cells (100 ul), centrifuged and stored at −80 for later analysis.
(§5) For Western blot, a BCA (total protein) assay was run on all samples, these were then run in batches of 5 compounds plus control (DMSO) on each Western blot run—n-myc and c-myc were run in separate experiments in the chemiluminescence channel. Both tubulin and GAPDH were run as loading controls in all lanes in the near infra red channel.

For test [2], the target named is T2, MycC protein (c-myc) (Homo sapiens, UniProt P01106).
T2 construct: either 2×10^6 of L-363 (human leukemia cell line) cells; endogenous in cells; host or cells: L-363 / L363 human leukemia cells
T2 sequence (P01106 whole entry): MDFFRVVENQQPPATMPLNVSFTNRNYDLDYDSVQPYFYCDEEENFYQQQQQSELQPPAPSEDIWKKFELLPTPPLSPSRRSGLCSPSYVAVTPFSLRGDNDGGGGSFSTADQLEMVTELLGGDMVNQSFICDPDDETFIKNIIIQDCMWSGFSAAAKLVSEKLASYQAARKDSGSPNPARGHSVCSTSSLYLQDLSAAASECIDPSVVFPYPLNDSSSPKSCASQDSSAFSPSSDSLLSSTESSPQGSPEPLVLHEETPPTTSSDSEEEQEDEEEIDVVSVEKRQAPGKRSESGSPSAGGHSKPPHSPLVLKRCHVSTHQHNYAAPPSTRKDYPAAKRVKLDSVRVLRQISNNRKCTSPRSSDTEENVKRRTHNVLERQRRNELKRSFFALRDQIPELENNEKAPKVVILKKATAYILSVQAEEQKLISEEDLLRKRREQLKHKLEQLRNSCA
The test is described as follows: Degradation of MycC protein, 24 h treatment, JESS Western, L363 cells (Example 161). Format: cell-based. Particulars: L-363 cells. As to the method:
as §1, §2, §3, §4, §5

A value given as a limit tells only on which side of the number the result lay.

Broadly, the inhibition is the percentage by which the read-out fell short of the control. A lower inhibition goes with a weak effect.

In test [1], `CN1CC2(CC(Nc3nccc(Nc4cc(C5CC5)[nH]n4)n3)C2)C1` [Compound 16, N4-(5-Cyclopropyl-1H-pyrazol-3-yl)-N2-(2-methyl-2-azaspiro[3.3]heptan-6-yl)pyrimidine-2,4-diamine] yielded an inhibition at 0.5 µM of 20 to 49%, an inhibition at 1 µM of 20 to 49%, an inhibition at 3 µM of 80 to 100% and an inhibition at 6 µM of 80 to 100%. In test [2], this compound had an inhibition at 0.5 µM of 50 to 79%, an inhibition at 1 µM of 80 to 100%, an inhibition at 3 µM of 80 to 100% and an inhibition at 6 µM of 80 to 100%.

On to `CN(c1nccc(Nc2cc(C3CCCC3)[nH]n2)n1)C1CCN(C2CC2)CC1` [Compound 17, N4-(5-Cyclopentyl-1H-pyrazol-3-yl)-N2-(1-cyclopropylpiperidin-4-yl)-N2-methylpyrimidine-2,4-diamine], for which, in test [1], the inhibition at 0.5 µM was less than 20%, the inhibition at 1 µM is 20 to 49%, the inhibition at 3 µM was in the range of 80 to 100% and the inhibition at 6 µM was in the range of 80 to 100%. Besides, in test [2], the inhibition at 1 µM lay in the range of 80 to 100%, the inhibition at 3 µM fell in the range of 80 to 100% and the inhibition at 6 µM was in the range of 80 to 100%.

In test [1], `CN(c1nccc(Nc2cc(C3CCCC3)[nH]n2)n1)C1CCNCC1` [Compound 18, N4-(5-Cyclopentyl-1H-pyrazol-3-yl)-N2-methyl-N2-(piperidin-4-yl)pyrimidine-2,4-diamine] registered an inhibition at 1 µM of 20 to 49%, an inhibition at 3 µM of 80 to 100% and an inhibition at 6 µM of 80 to 100%. Moreover, in test [2], the inhibition at 1 µM lay in the range of 80 to 100%, the inhibition at 3 µM lay within 80 to 100% and the inhibition at 6 µM fell in the range of 80 to 100%.

In test [1], `CN(c1nccc(Nc2cc(C3CC3)[nH]n2)n1)C1CC2(C1)CN(CC1CCOCC1)C2` [Compound 20, N4-(5-Cyclopropyl-1H-pyrazol-3-yl)-N2-methyl-N2-{2-[(oxan-4-yl)methyl]-2-azaspiro[3.3]heptan-6-yl}pyrimidine-2,4-diamine] had an inhibition at 3 µM of 20 to 49% and an inhibition at 6 µM of 50 to 79%. Also, in test [2], the inhibition at 6 µM is 80 to 100%.

In test [1], `CN(c1nccc(Nc2cc(C3CC3)[nH]n2)n1)C1CC2(C1)CN(CC1CC1)C2` [Compound 21, N4-(5-Cyclopropyl-1H-pyrazol-3-yl)-N2-(2-(cyclopropylmethyl)-2-azaspiro[3.3]heptan-6-yl)-N2-methylpyrimidine-2,4-diamine] registered an inhibition at 0.5 µM of less than 20%, an inhibition at 1 µM of 20 to 49%, an inhibition at 3 µM of 20 to 49% and an inhibition at 6 µM of 50 to 79%. Moreover, in test [2], the inhibition at 1 µM was less than 20%, the inhibition at 3 µM is 50 to 79% and the inhibition at 6 µM was in the range of 80 to 100%.

On to `CN(c1nccc(Nc2cc(C3CC3)[nH]n2)n1)C1CC2(C1)CN(CC(=O)Nc1cccc(S(C)(=O)=O)c1)C2` [Compound 23, 2-(6-((4-((5-Cyclopropyl-1H-pyrazol-3-yl)amino)pyrimidin-2-yl)(methyl)amino)-2-azaspiro[3.3]heptan-2-yl)-N-(3-(methylsulfonyl)phenyl)acetamide], for which the inhibition at 6 µM in test [1] fell in the range of 80 to 100%. In test [2], this compound yielded an inhibition at 0.5 µM of less than 20%, an inhibition at 1 µM of 50 to 79%, an inhibition at 3 µM of 80 to 100% and an inhibition at 6 µM of 80 to 100%.

For `CN(c1nccc(Nc2cc(C3CC3)[nH]n2)n1)C1CC2(C1)CN(Cc1ccccc1F)C2` [Compound 25, N4-(5-Cyclopropyl-1H-pyrazol-3-yl)-N2-(2-(2-fluorobenzyl)-2-azaspiro[3.3]heptan-6-yl)-N2-methylpyrimidine-2,4-diamine], in test [1], the inhibition at 3 µM is less than 20% and the inhibition at 6 µM was less than 20%. In addition, in test [2], the inhibition at 0.5 µM is 20 to 49% and the inhibition at 1 µM fell in the range of 20 to 49%.

`CN(c1nccc(Nc2cc(C3CC3)[nH]n2)n1)C1CC2(C1)CN(Cc1cc(F)cc(F)c1)C2` [Compound 26, N4-(5-Cyclopropyl-1H-pyrazol-3-yl)-N2-(2-(3,5-difluorobenzyl)-2-azaspiro[3.3]heptan-6-yl)-N2-methylpyrimidine-2,4-diamine]: in test [1], the inhibition at 1 µM is less than 20% and the inhibition at 6 µM was 20 to 49%. In test [2], this compound displayed an inhibition at 1 µM of less than 20%, an inhibition at 3 µM of less than 20% and an inhibition at 6 µM of 80 to 100%.

In the case of `CN(c1nccc(Nc2cc(C3CC3)[nH]n2)n1)C1CC2(C1)CN(Cc1cccc(OC(F)(F)F)c1)C2` [Compound 27, N4-(5-Cyclopropyl-1H-pyrazol-3-yl)-N2-methyl-N2-(2-(3-(trifluoromethoxy)benzyl)-2-azaspiro[3.3]heptan-6-yl)pyrimidine-2,4-diamine], in test [1], the inhibition at 0.5 µM is 20 to 49%, the inhibition at 1 µM lay in the range of 20 to 49% and the inhibition at 6 µM is less than 20%. In test [2], this compound displayed an inhibition at 0.5 µM of less than 20%, an inhibition at 1 µM of 20 to 49%, an inhibition at 3 µM of 50 to 79% and an inhibition at 6 µM of 80 to 100%.

On to `CN(c1nccc(Nc2cc(C3CC3)[nH]n2)n1)C1CC2(C1)CN(Cc1cccc(S(C)(=O)=O)c1)C2` [Compound 28, N4-(5-Cyclopropyl-1H-pyrazol-3-yl)-N2-methyl-N2-(2-(3-(methylsulfonyl)benzyl)-2-azaspiro[3.3]heptan-6-yl)pyrimidine-2,4-diamine], for which the inhibition at 6 µM in test [1] fell in the range of 20 to 49%; in test [2], 80 to 100%. In test [2], this compound came in with an inhibition at 3 µM of 80 to 100%.

In test [1], `CN(c1nccc(Nc2cc(C3CC3)[nH]n2)n1)C1CC2(C1)CN(CCCc1nc3ccccc3o1)C2` [Compound 29, N2-(2-(3-(Benzo[d]oxazol-2-yl)propyl)-2-azaspiro[3.3]heptan-6-yl)-N4-(5-cyclopropyl-1H-pyrazol-3-yl)-N2-methylpyrimidine-2,4-diamine] had an inhibition at 0.5 µM of 20 to 49%, an inhibition at 1 µM of 20 to 49%, an inhibition at 3 µM of 50 to 79% and an inhibition at 6 µM of 80 to 100%. In test [2], this compound yielded an inhibition at 0.5 µM of 50 to 79%, an inhibition at 1 µM of 80 to 100%, an inhibition at 3 µM of 80 to 100% and an inhibition at 6 µM of 80 to 100%.

In test [1], `CN(c1nccc(Nc2cc(C3CC3)[nH]n2)n1)C1CC2(C1)CN(C(=O)c1cn(C)nn1)C2` [Compound 31, (6-((4-((5-Cyclopropyl-1H-pyrazol-3-yl)amino)pyrimidin-2-yl)(methyl)amino)-2-azaspiro[3.3]heptan-2-yl)(1-methyl-1H-1,2,3-triazol-4-yl)methanone] returned an inhibition at 0.5 µM of 20 to 49%, an inhibition at 1 µM of 50 to 79%, an inhibition at 3 µM of 80 to 100% and an inhibition at 6 µM of 80 to 100%. In test [2], this compound returned an inhibition at 1 µM of 80 to 100%, an inhibition at 3 µM of 80 to 100% and an inhibition at 6 µM of 80 to 100%.

In test [1], `CN(c1nccc(Nc2cc(C3CC3)[nH]n2)n1)C1CC2(C1)CN(C(=O)C1CCOCC1)C2` [Compound 32, (6-((4-((5-Cyclopropyl-1H-pyrazol-3-yl)amino)pyrimidin-2-yl)(methyl)amino)-2 azaspiro[3.3]heptan-2-yl)(tetrahydro-2H-pyran-4-yl)methanone] returned an inhibition at 3 µM of 80 to 100% and an inhibition at 6 µM of 80 to 100%. In test [2], this compound showed an inhibition at 3 µM of 80 to 100% and an inhibition at 6 µM of 80 to 100%.

`Cc1nnsc1C(=O)N1CC2(CC(N(C)c3nccc(Nc4cc(C5CC5)[nH]n4)n3)C2)C1` [Compound 33, (6-((4-((5-Cyclopropyl-1H-pyrazol-3-yl)amino)pyrimidin-2-yl)(methyl)amino)-2-azaspiro[3.3]heptan-2-yl)(4-methyl-1,2,3-thiadiazol-5-yl)methanone] had an inhibition at 6 µM in test [1] of 80 to 100%. In test [2], the inhibition at 3 µM was 80 to 100% and the inhibition at 6 µM was 80 to 100%.

For the origin of these results see US20230322722A1, “MODULATORS OF MYC FAMILY PROTO-ONCOGENE PROTEIN” (Nalo Therapeutics, priority 2020, published 2023).
